Consider 2 compounds from patent publication EP0398621A2, “Immunoassay of elastase-1” (SHIONOGI SEIYAKU KABUSHIKI KAISHA trading under the name of …, priority 1989, dated 1990).

Assay [1] relates to E1. The assay is described as follows: Radioimmunoassay standard curves of Boc-TACK-treated E1 and untreated E1. Format: binding, human. To be noted: standard curve of Boc-TACK-treated E1 compared with untreated E1. How it is done:
(§1) As for measuring buffer solution, 0.01 M phosphate buffer (pH 7.4) containing 0.1 mM Boc-TACK, 0.9% sodium chloride, 0.05% sodium azide and 0.2% bovine serum albumin was used unless otherwise mentioned. One hundred µl of standard E1 solution (0.5 - 50ng/ml) or sample serum was taken into a polystyrene tube. To this were added 100 µl each of ¹²⁵I-labelled E1 solution and anti-E1 serum, which was then mixed and incubated for 3 hours at 37°C. Next, 500 µl of the preparation of the second antibody was added, which was mixed and incubated for 30 minutes at 37°C. The incubated product was centrifuged (3000 rpm, 5 minutes), after which the supernatant was removed by suction and the radioactivity of the precipitate was measured.
To evaluate the effect of Boc-TACK on the immunological reaction of E1, standard curves were drawn of Boc-TACK-treated E1 and untreated E1, and then comparison was made between the two.

Assay [2] relates to ¹²⁵I-labelled E1. The assay is described as follows: Gel filtration: binding of serum inhibitor to ¹²⁵I-labelled E1 in human serum. The following applies: 30 minutes at 37°C, Ultrogel AcA 44, ¹²⁵I-labelled E1 treated with the inhibitor. As for the experimental part:
To human serum was added ¹²⁵I-labelled E1, which was incubated for 30 minutes at 37°C. This was then subjected to gel filtration [Ultrogel AcA 44 (made by IBF Biotechnichs), ⌀ 1.5 x 55cm, developing solution: 0.1 M phosphate buffer (pH 7.1)]. The eluate was collected in 1-ml portions and the radioactivity in each fraction was measured.
When the human serum to which ¹²⁵I-labelled E1 not treated with Boc-TACK had been added was subjected to gel filtration, the ¹²⁵I-labelled E1 was all eluted in the fraction of its complex containing α₁-antitrypsin and α₂-macroglobulin (Fig. 1-a).

Assay [3] concerns ¹²⁵I-labelled E1. The assay is described as follows: Radioimmunoassay: effect of α₁-antitrypsin or α₂-macroglobulin on the binding rate of anti-E1 serum with ¹²⁵I-labelled E1. Further details: species or system human. As for the experimental part: as §1
Radioimmunoassay was performed using α₁-antitrypsin or α₂-macroglobulin solution in place of the standard E1 solution, whereby the effect of these on the binding rate was examined. As for measuring buffer solution, one mentioned in above-mentioned (7) was used in one method (A method), and one not containing Boc-TACK was used in another method (B method), and one containing PMSF in place of Boc-TACK was used in third method (C method) (Fig. 2).

The subject of assay [4] is elastase-1. The following applies: prior art statement; cited from earlier work.

Regarding `CC(NC(=O)[C@H](C)NC(=O)[C@H](C)NC(=O)OC(C)(C)C)C(=O)CCl` (some centres unmarked) [Boc-TACK, Nα-[N-(tert-butoxycarbonyl)alanyl]-N-(3-chloro-1-methyl-2-oxopropyl)alanineamide], the “effect on the immunological reaction of E1” value in assay [1] was “did not affect the immunological reaction of E1 in any way”. The “elution of ¹²⁵I-labelled E1 in free fraction or complex fraction” value in assay [2] was “none of it was found in the complex fraction”. In assay [3] (α₁-antitrypsin or α₂-macroglobulin solution in place of standard E1, inhibitor in measuring buffer solution), the “binding rate with increases in serum inhibitor” value is reported as “little change was observed in the binding rate”. Besides, the “binding rate with α₂-macroglobulin in a high concentration” value in assay [3] (α₂-macroglobulin in a high concentration, 0.1 mM Boc-TACK in measuring buffer solution) was “only a slight decrease”.

`O=S(=O)(F)Cc1ccccc1` [PMSF, phenylmethanesulfonyl fluoride]: in assay [4], the “capability of inhibiting the binding of α₁-antitrypsin and α₂-macroglobulin to elastase-1” value is “weak capability”.
